Columns and labels:
[1] = Lipid nanoparticle size and polydispersity by dynamic light scattering; type: physicochemical; details: LNP of cationic lipid/DSPC/cholesterol/PEG-lipid 50:10:38.5:1.5 with mRNA
Protocol: (§1) Briefly, a cationic lipid provided herein, DSPC, cholesterol, and PEG-lipid were solubilized in ethanol at a molar ratio of 50:10:38.5:1.5, and mRNA were diluted in 10 to 50 mM citrate buffer, pH=4. The LNPs were prepared at a total lipid to mRNA weight ratio of approximately 10:1 to 30:1 by mixing the ethanolic lipid solution with the aqueous mRNA solution at a volume ratio of 1:3 using a microfluidic apparatus, total flow rate ranging from 9-30 mL/min. Ethanol were thereby removed and replaced by DPBS using dialysis. Finally, the lipid nanoparticles were filtered through a 0.2 μm sterile filter.
(§2) Lipid nanoparticle size were determined by dynamic light scattering using a Malvern Zetasizer Nano ZS (Malvern UK) using a 173° backscatter detection mode. The encapsulation efficiency of lipid nanoparticles were determined using a Quant-it Ribogreen RNA quantification assay kit (Thermo Fisher Scientific, UK) according to the manufacturer's instructions.

[2] = Encapsulation efficiency of lipid nanoparticles (Quant-it Ribogreen RNA assay); type: physicochemical; details: LNP of cationic lipid/DSPC/cholesterol/PEG-lipid 50:10:38.5:1.5 with mRNA
Protocol: as §1, §2

[3] = Apparent pKa of LNP formulations by TNS fluorescence assay; details: LNP cationic lipid/DSPC/cholesterol/DMG-PEG 50/10/38.5/1.5 mol %, pH 3 to 9
Protocol: TNS was prepared as a 300 uM stock solution in distilled water. LNP formulations were diluted to 0.1 mg/ml total lipid in 3 mL of buffered solutions containing 50 mM sodium citrate, 50 mM sodium phosphate, 50 mM sodium borate, and 30 mM sodium chloride where the pH ranged from 3 to 9. An aliquot of the TNS solution was added to give a final concentration of 0.1 mg/ml and following vortex mixing fluorescence intensity was measured at room temperature in a Molecular Devices Spectramax iD3 spectrometer using excitation and mission wavelengths of 325 nm and 435 nm. A sigmoidal best fit analysis was applied to the fluorescence data and the pKa value was measured as the pH giving rise to half—maximal fluorescent intensity.

CCCCCCCCC(CCCCCC)COC(=O)CCCCCOP(=O)(NCCCN(C)C)OCCCCCC(=O)OCC(CCCCCC)CCCCCCCC (stereo not drawn) [Compound 45]
polydispersity [1]: 0.12
size (nm) [1]: 63.18 nm
Encapsulation Efficiency [2]: 102.8%

CCCCCCCC(CCCCCCC)COP(=O)(NCCN1CCCC1)OCC(CCCCCCC)CCCCCCC [Compound 85]
polydispersity [1]: 0.153
size (nm) [1]: 53.57 nm
Apparant Pka [3]: 5.216
Encapsulation Efficiency [2]: 71.7%

CCCCCCCCCCCCCOP(=O)(NCCN1CCCCC1)OCCCCCCCCCCCCC [Compound 13]
polydispersity [1]: 0.034
size (nm) [1]: 130.5 nm
Apparant Pka [3]: 7.79
Encapsulation Efficiency [2]: 96.5%

CCCCCCCCC(CCCCCC)COP(=O)(NCCN1CC2CC2C1)OCC(CCCCCC)CCCCCCCC (stereo not drawn) [Compound 62]
polydispersity [1]: 0.338
size (nm) [1]: 56.35 nm
Apparant Pka [3]: 5.063
Encapsulation Efficiency [2]: 89.9%

CCCCCCCCCCC(CCCCCCCC)COP(=O)(NCCN1CCCC1)OCC(CCCCCCCC)CCCCCCCCCC (stereo not drawn) [Compound 79]
polydispersity [1]: 0.053
size (nm) [1]: 71.16 nm
Apparant Pka [3]: 6.457
Encapsulation Efficiency [2]: 96.3%

CCCCCCCCCCC(CCCCCC)COP(=O)(NCCN(CC)CC)OCC(CCCCCC)CCCCCCCCCC (stereo not drawn) [Compound 66]
polydispersity [1]: 0.141
size (nm) [1]: 54.17 nm
Apparant Pka [3]: 6.149
Encapsulation Efficiency [2]: 94.4%

CCCCCCCCCCCCCOP(=O)(NCCCN(C)C)OCCCCCCCCCCCCC [Compound 10]
polydispersity [1]: 0.116
size (nm) [1]: 138.3 nm
Apparant Pka [3]: 6.94
Encapsulation Efficiency [2]: 96.2%

CCCCCCCCC(CCCC)COP(=O)(NCCN1CCCC1)OCC(CCCC)CCCCCCCC (stereo not drawn) [Compound 73]
polydispersity [1]: 0.101
size (nm) [1]: 70.54 nm
Apparant Pka [3]: 7.003
Encapsulation Efficiency [2]: 91.4%

CCCCCCCCC(CCCCCC)COP(=O)(NCCN(CCCC)CCCC)OCC(CCCCCC)CCCCCCCC (stereo not drawn) [Compound 51]
polydispersity [1]: 0.167
size (nm) [1]: 88.45 nm
Apparant Pka [3]: 6.66
Encapsulation Efficiency [2]: 75.52%

CCCCCCCCC(C)COP(=O)(NCCN1CCCC1)OCC(C)CCCCCCCC (stereo not drawn) [Compound 68]
polydispersity [1]: 0.253
size (nm) [1]: 86.75 nm
Apparant Pka [3]: 7.401
Encapsulation Efficiency [2]: 95.0%

CCCCCCCCC(CCCCCCCC)OC(=O)CCCCCCCOP(=O)(NCCCCN(C)C)OCCCCCCC (stereo not drawn) [Compound 44]
polydispersity [1]: 0.187
size (nm) [1]: 51.72 nm
Apparant Pka [3]: 5.17
Encapsulation Efficiency [2]: 94.0%

CCCCCCCCCOP(=O)(NCCCN(C)C)OCCCCCCCCC [Compound 4]
polydispersity [1]: 0.055
size (nm) [1]: 72.06 nm
Apparant Pka [3]: 8.26
Encapsulation Efficiency [2]: 73.2%

CCCCCCCCCOP(=O)(NCCCCN(C)C)OCCCCCCCCC [Compound 1]
polydispersity [1]: 0.074
size (nm) [1]: 54.18 nm
Apparant Pka [3]: 7.65
Encapsulation Efficiency [2]: 90.3%

CCCCCCCCC(CCCCCCCC)OC(=O)CCCCCCCOP(=O)(NCCN(C)C)OCCCCCCCC(=O)OC(CCCCCCCC)CCCCCCCC [Compound 38]
polydispersity [1]: 0.094
size (nm) [1]: 108.5 nm
Apparant Pka [3]: 5.84
Encapsulation Efficiency [2]: 45.9%

CCCCCCCCCCCCCOP(=O)(NCCN1CCC1)OCCCCCCCC(=O)OC(CCCCCCCC)CCCCCCCC (stereo not drawn) [Compound 41]
polydispersity [1]: 0.306
size (nm) [1]: 50.64 nm
Apparant Pka [3]: 7.70
Encapsulation Efficiency [2]: 101.1%

CCCCCCCCC(CCCC)COP(=O)(NCCN(CC)CC)OCC(CCCC)CCCCCCCC (stereo not drawn) [Compound 75]
polydispersity [1]: 0.023
size (nm) [1]: 138.2 nm
Apparant Pka [3]: 6.603
Encapsulation Efficiency [2]: 92.1%

CCCCCCCCCCCCCOP(=O)(NCCCN1CCCCC1)OCCCCCCCC(=O)OC(CCCCCCCC)CCCCCCCC (stereo not drawn) [Compound 35]
polydispersity [1]: 0.245
size (nm) [1]: 62.7 nm
Apparant Pka [3]: 9.42
Encapsulation Efficiency [2]: 99.9%

CCCCCCCCCCCCCOP(=O)(NCCCN1CCCC1)OCCCCCCCCCCCCC [Compound 12]
polydispersity [1]: 0.137
size (nm) [1]: 164.9 nm
Apparant Pka [3]: 6.13
Encapsulation Efficiency [2]: 94.0%

CCCCCCCC(CCCCCCC)COP(=O)(NCCN(CC)CC)OCC(CCCCCCC)CCCCCCC [Compound 84]
polydispersity [1]: 0.175
size (nm) [1]: 52.13 nm
Apparant Pka [3]: 5.484
Encapsulation Efficiency [2]: 89.9%

CCCCCCCCC(CCCCCCCC)OC(=O)CCCCCCCOP(=O)(NCCCN(C)C)NCCCN(C)C [Compound 37]
polydispersity [1]: 0.166
size (nm) [1]: 104.3 nm
Apparant Pka [3]: 4.55
Encapsulation Efficiency [2]: 48.8%

CCCCCCCCC(CCCCCC)COP(=O)(NCCN(C)CCO)OCC(CCCCCC)CCCCCCCC (stereo not drawn) [Compound 46]
polydispersity [1]: 0.114
size (nm) [1]: 54.72 nm
Apparant Pka [3]: 6.85
Encapsulation Efficiency [2]: 99.0%

CCCCCCCCCCCCCOP(=O)(NCCN1CCOCC1)OCCCCCCCCCCCCC [Compound 15]
polydispersity [1]: 0.059
size (nm) [1]: 104.3 nm
Apparant Pka [3]: 5.90
Encapsulation Efficiency [2]: 73.6%

CCCCCCCCC(CCCCCCCC)OC(=O)CCCCCCCOP(=O)(NCCCN(C)C)OCCCCCCC (stereo not drawn) [Compound 43]
polydispersity [1]: 0.196
size (nm) [1]: 76.16 nm
Apparant Pka [3]: 8.08
Encapsulation Efficiency [2]: 98.3%

CCCCCCCCC(CCCCCCCC)COP(=O)(NCCN(CC)CC)OCC(CCCCCC)CCCCCC (stereo not drawn) [Compound 90]
polydispersity [1]: 0.242
size (nm) [1]: 56.48 nm
Apparant Pka [3]: 5.526
Encapsulation Efficiency [2]: 85.7%

CCCCCCCCC(CCCCCC)COP(=O)(NCCN(C)C)OCC(CCCCCC)CCCCCCCC (stereo not drawn) [Compound 21]
polydispersity [1]: 0.105
size (nm) [1]: 80.66 nm
Apparant Pka [3]: 4.79
Encapsulation Efficiency [2]: 70.2%

CCCCCCCCCCCCCCOP(=O)(NCCCN(C)C)OCCCCCCCCCCCCCC [Compound 11]
polydispersity [1]: 0.092
size (nm) [1]: 107.7 nm
Apparant Pka [3]: 8.53
Encapsulation Efficiency [2]: 81.3%

CCCCCCCCC(CCCCCC)COP(=O)(NCCCN1CCOCC1)OCC(CCCCCC)CCCCCCCC (stereo not drawn) [Compound 31]
polydispersity [1]: 0.159
size (nm) [1]: 62.39 nm
Apparant Pka [3]: 5.21
Encapsulation Efficiency [2]: 91.8%

CCCCCCCCCOP(=O)(NCCN(C)C)OCCCCCCCCC [Compound 3]
polydispersity [1]: 0.154
size (nm) [1]: 53.41 nm
Apparant Pka [3]: 8.59
Encapsulation Efficiency [2]: 61.6%

CCCCCCCCC(CCCCCC)COP(=O)(NCCN(CCO)C1CCC1)OCC(CCCCCC)CCCCCCCC (stereo not drawn) [Compound 57]
polydispersity [1]: 0.196
size (nm) [1]: 78.22 nm
Apparant Pka [3]: 5.325
Encapsulation Efficiency [2]: 91.0%

CCCCCCCCCOC(=O)CCCCCCCOP(=O)(NCCCN(C)C)OCCCCCCCC(=O)OC(CCCCCCCC)CCCCCCCC (stereo not drawn) [Compound 40]
polydispersity [1]: 0.122
size (nm) [1]: 80.83 nm
Apparant Pka [3]: 7.77
Encapsulation Efficiency [2]: 99.6%

CCCCCCCCC(CCCCCC)COP(=O)(NCCN(CCO)CCCCCC)OCC(CCCCCC)CCCCCCCC (stereo not drawn) [Compound 56]
polydispersity [1]: 0.264
size (nm) [1]: 139.3 nm
Apparant Pka [3]: 5.253
Encapsulation Efficiency [2]: 92.5%

CCCCCCCCC(CCCCCC)COP(=O)(NCCN(CC)CC)OCC(CCCCCC)CCCCCCCC (stereo not drawn) [Compound 49]
polydispersity [1]: 0.191
size (nm) [1]: 58.02 nm
Apparant Pka [3]: 6.47
Encapsulation Efficiency [2]: 95.1%

CCCCCCCCCCCCCOP(=O)(OCCCCCCCCCCCCC)N1CCC(N2CCOCC2)CC1 [Compound 19]
polydispersity [1]: 0.086
size (nm) [1]: 110.8 nm
Apparant Pka [3]: 6.38
Encapsulation Efficiency [2]: 73.7%

CCCCCCCCCOC(=O)CCCCCOP(=O)(NCCN(C)C)OCCCCCC(=O)OCCCCCCCCC [Compound 5]
polydispersity [1]: 0.194
size (nm) [1]: 94.66 nm
Apparant Pka [3]: 7.26
Encapsulation Efficiency [2]: 88.8%

CCCCCCCCC(C)COP(=O)(NCCN(CC)CC)OCC(C)CCCCCCCC (stereo not drawn) [Compound 69]
polydispersity [1]: 0.355
size (nm) [1]: 68.3 nm
Apparant Pka [3]: 7.408
Encapsulation Efficiency [2]: 87.1%

CCCCCCCCC(CCCCCC)COP(=O)(NCCN1CC2CCCC2C1)OCC(CCCCCC)CCCCCCCC (stereo not drawn) [Compound 61]
polydispersity [1]: 0.163
size (nm) [1]: 69.3 nm
Encapsulation Efficiency [2]: 82.85%

CCCCCCCCC(CCCCCCCC)OC(=O)CCCCCCCOP(=O)(NCCN(C)C)OCCCCCCC (stereo not drawn) [Compound 42]
polydispersity [1]: 0.1
size (nm) [1]: 54.46 nm
Encapsulation Efficiency [2]: 102.3%

CCCCCCCCC(CCCCCC)COP(=O)(NCCN(C(C)C)C(C)C)OCC(CCCCCC)CCCCCCCC (stereo not drawn) [Compound 48]
polydispersity [1]: 0.094
size (nm) [1]: 73.81 nm
Encapsulation Efficiency [2]: 93.48%

CCCCCCCCC(CCCCCC)COP(=O)(NCCN(CCC)CCC)OCC(CCCCCC)CCCCCCCC (stereo not drawn) [Compound 50]
polydispersity [1]: 0.09
size (nm) [1]: 93.25 nm
Encapsulation Efficiency [2]: 85.5%

CCCCCCCCCCC(CCCCCCCCCC)COP(=O)(NCCN(CC)CC)OCC(CCCCCCCCCC)CCCCCCCCCC [Compound 86]
Apparant Pka [3]: 4.924
Encapsulation Efficiency [2]: 81.0%

Source: patent publication US20220331414A1, “LIPID COMPOUNDS AND LIPID NANOPARTICLE COMPOSITIONS” (Suzhou Abogen Biosciences Co., Ltd., priority 2020, published 2022)
